In US8506926B2, “[18F]-furanosylpurine derivatives and uses thereof” (priority 2003, dated 2013):

Key:
[1] = test system: human colon tumor xenografts; conditions: Carson; Takahashi; cited from earlier work
[2] = mouse, in vivo
[3] = Blood clearance after intravenous injection; assay type: in vivo, athymic nude mice; conditions: blood samples 1-120 minutes after i.v. injection
Experimental: Activity injected into each mouse was measured in a dose calibrator (Capintec). […] Activity in each blood sample was measured by a gamma counter, standardized for injected dose, and % injected dose per gram was calculated. Mean % injected dose per gram was plotted against time to obtain the blood clearance curve for each compound. Animals were anesthetized with Nembutal (40 mg/kg) and sacrificed at 2 hours post-injection. All organs including tumor were separated and weighed. Radioactivity in each organ was measured using a gamma counter. For each mouse, radioactivity uptake was expressed as % injected dose per gram, and as ratio of organ to blood uptake.

[4] = Micro-PET imaging studies; assay type: in vivo; conditions: for micro-PET image findings: 30 minutes, 1 hour and 2 hours post-injection; for wash out of activity with time (micro-PET): up to 2 hours post-injection
Experimental: PET imaging was performed using a Micro-PET scanner (Concorde Microsystems, Inc.), with 120 transaxial planes and spatial resolution of 2.0 mm, at 30 minutes, 1 hour and 2 hours post-injection. Images were reconstructed using Ordered Subset Expectation Maximization (OSEM) algorithm.

[5] = biological target: T1, herpes simplex virus thymidine kinase (HSV-tk) (Human herpesvirus 1, UniProt P0DTH5); test: Tumor uptake in HSV-tk transduced versus wild type tumors on the same animal; assay type: in vivo; conditions: tumor uptake in transduced and wild type cells comparable
T1 construct: expressed in transfected cells

[6] = cited from earlier work

T1 sequence (P0DTH5 whole entry): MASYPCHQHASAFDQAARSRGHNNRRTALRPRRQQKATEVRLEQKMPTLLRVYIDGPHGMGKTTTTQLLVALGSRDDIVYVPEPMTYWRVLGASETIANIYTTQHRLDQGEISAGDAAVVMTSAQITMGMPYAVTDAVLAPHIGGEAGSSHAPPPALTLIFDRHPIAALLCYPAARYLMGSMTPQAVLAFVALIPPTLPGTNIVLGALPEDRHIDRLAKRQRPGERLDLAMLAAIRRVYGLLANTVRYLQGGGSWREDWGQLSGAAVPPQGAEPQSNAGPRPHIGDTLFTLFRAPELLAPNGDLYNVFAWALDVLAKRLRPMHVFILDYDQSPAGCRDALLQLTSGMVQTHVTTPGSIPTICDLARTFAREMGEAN

SMILES | tissue of highest uptake [2] | blood clearance pattern [3] | micro-PET image findings [4] | wash out of activity with time (micro-PET) [4] | other results
Nc1nc(Cl)nc2c1ncn2[C@@H]1O[C@H](CO)[C@@H](O)[C@@H]1F [2′-deoxy-2′-fluoro-2-chloro-9-β-D-arabinofuranosyladenine] | – | – | – | – | activity against human colon tumor xenografts [1]: active
Nc1ncnc2c1ncn2[C@@H]1O[C@H](CO)[C@@H](O)[C@@H]1[18F] [[^18F]-FAA, 2′-deoxy-2′-[^18F]-fluoro-9-β-D-arabinofuranosyladenine] | spleen | clear rapidly from the blood initially, then slow down after 20 minutes post-injection | high uptake in spleen | wash out of activity with time was minimal | Uptake in kidney [2]: 3.5%; Uptake in liver [2]: 2.4%; tumor uptake compared to the background activity [2]: more than 3 fold; uptake in tumors compared to blood [2]: 3.3 fold; substrate for HSV-tk [5]: not a substrate for HSV-tk
Nc1ncnc2c1ncn2[C@@H]1O[C@H](CO)[C@H]([18F])[C@H]1O [[^18F]-FXA, 3′-deoxy-3′-[^18F]-fluoro-9-β-D-xylofuranosyladenine] | heart | clear rapidly from the blood initially, then slow down after 20 minutes post-injection | activity is in the heart | did not wash out in 2 hours post-injection | tumor/blood ratio [2]: less than 1
Nc1nc(=O)n([C@@H]2O[C@H](CO)[C@@H](O)[C@@H]2F)cc1[125I] [[^125I] labeled FIAC, [^125I]-2′-fluoro-5-iodo-1-β-D-arabinofuranosylcytosine] | – | – | – | – | deiodination in vivo [6]: extensive deiodination in vivo
